Experimental data reported in ChEMBL document CHEMBL1671671, “Tooth-binding micelles for dental caries prevention” (Antimicrob Agents Chemother, 2009).
In brackets after ≈: the same amount, converted by molar mass.

Key:
Streptococcus mutans [1] = assay: (§1) Antibacterial activity against Streptococcus mutans UA159 assessed as log decrease in bacterial count per biofilm recovered from hydroxyapatite disc using low dose compound containing hydroxyapatite bound tooth-binding micelles formed from biocompatible pluronic copolymers modified with alendronat measured after 48 hrs post dose; assay type: functional
Streptococcus mutans [2] = assay: as §1, with “high” for “low”; assay type: functional
[3] = Drug release from hydroxyapatite bound tooth-binding micelles formed from biocompatible pluronic copolymers modified with alendronat assessed as compound release into medium after 48 hrs; assay type: physicochemical
Streptococcus mutans [4] = assay: Antibacterial activity against Streptococcus mutans UA159; assay type: functional
Streptococcus mutans [5] = assay: as §1, with “medium” for “low”; assay type: functional

In the case of CC(C)=CCC/C(C)=C/CC/C(C)=C/CO [FARNESOL], the FC (Streptococcus mutans [1]) is reported as 4, the FC (Streptococcus mutans [2]) is reported as 4 and the Activity [3] is reported as 10%. It also gave an MIC (Streptococcus mutans [4]) of 125 µM (≈ 27.8 µg/mL) and an FC (Streptococcus mutans [5]) of 4.
